Reference: US20240158446A1, “CYCLIC COMPOUND HAVING SELECTIVE INHIBITORY ACTION ON KRAS OVER HRAS AND NRAS” (CHUGAI SEIYAKU KABUSHIKI KAISHA, priority 2021, published 2024)

Key:
[1] = target: GDP-bound NRAS wild-type protein (Homo sapiens, UniProt P01111); experiment: Binding to NRAS by surface plasmon resonance (SPR), Single Cycle Kinetics; conditions: for NRAS/KRAS (ratio of KD value with respect to GDP-bound NRAS wild-type protein to KD value with respect to KRAS): SPR KD ratio NRAS/KRAS, class symbols
[2] = target: GDP-bound HRAS wild-type protein (Homo sapiens, UniProt P01112); experiment: Binding to HRAS by surface plasmon resonance (SPR), Single Cycle Kinetics; conditions: for HRAS/KRAS (ratio of KD value with respect to GDP-bound HRAS wild-type protein to KD value with respect to KRAS): SPR KD ratio HRAS/KRAS, class symbols
[3] = SPR, GDP-bound NRAS wild-type protein vs GDP-bound KRAS wild-type protein
[4] = SPR, GDP-bound HRAS wild-type protein vs GDP-bound KRAS wild-type protein

Sequence of GDP-bound NRAS wild-type protein (P01111 whole entry): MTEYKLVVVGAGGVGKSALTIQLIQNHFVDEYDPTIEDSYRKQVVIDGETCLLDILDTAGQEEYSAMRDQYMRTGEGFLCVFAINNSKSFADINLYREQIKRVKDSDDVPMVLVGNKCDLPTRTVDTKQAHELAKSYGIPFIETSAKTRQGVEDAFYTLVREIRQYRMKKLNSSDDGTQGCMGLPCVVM
Sequence of GDP-bound HRAS wild-type protein (P01112 whole entry): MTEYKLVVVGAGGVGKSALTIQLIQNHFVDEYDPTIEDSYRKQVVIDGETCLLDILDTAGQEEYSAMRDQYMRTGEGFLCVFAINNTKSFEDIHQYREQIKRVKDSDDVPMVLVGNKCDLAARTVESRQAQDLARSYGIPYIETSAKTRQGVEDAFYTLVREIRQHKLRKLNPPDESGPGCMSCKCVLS

SMILES	NRAS/KRAS (ratio of KD value with respect to GDP-bound NRAS wild-type protein to KD value with respect to KRAS) [1]	HRAS/KRAS (ratio of KD value with respect to GDP-bound HRAS wild-type protein to KD value with respect to KRAS) [2]	further results
CC[C@H](C)[C@@H]1NC(=O)[C@H](CC(C)C)N(C)C(=O)C[C@@H](C(=O)N2CCOCC2)N(C)C(=O)[C@H](C2CCCC2)N(C)C(=O)C2(CCCC2)NC(=O)[C@@H]2CCCN2C(=O)[C@H](CCc2cc(F)c(C(F)(F)F)c(F)c2)NC(=O)CN(C)C(=O)[C@H](Cc2ccc(F)cc2)N2CCCCC[C@@H](C2=O)N(C)C(=O)CN(C)C1=O [PP0964]			NRAS/KRAS (ratio of KD value for NRAS to KD value for KRAS) [1, 3]: B (a compound having 3 or more and less than 10 is denoted as B); HRAS/KRAS (ratio of KD value for HRAS to KD value for KRAS) [2, 4]: B (a compound having 3 or more and less than 10 is denoted as B)
CCC[C@H]1C(=O)N[C@@H]([C@@H](C)CC)C(=O)N(CCC)CC(=O)N(C)[C@H]2C/C=C\CCN(C2=O)[C@@H](Cc2ccc(C)cc2)C(=O)N(C)CC(=O)N[C@@H](CCc2cc(F)c(C(F)(F)F)c(F)c2)C(=O)N2C[C@H](OCC)C[C@H]2C(=O)NC2(CC(C)(C)C2)C(=O)N(C)[C@@H](C2CCCC2)C(=O)N(C)[C@H](C(=O)N(C)C)CC(=O)N1C [PP2108]			NRAS/KRAS (ratio of KD value for NRAS to KD value for KRAS) [1, 3]: A (a compound having 10 or more and less than 20 is denoted as A); HRAS/KRAS (ratio of KD value for HRAS to KD value for KRAS) [2, 4]: A (a compound having 10 or more and less than 20 is denoted as A)
CCC[C@H]1C(=O)N[C@@H]([C@@H](C)CC)C(=O)N(C)CC(=O)N(C)[C@H]2C/C=C\CCN(C2=O)[C@@H](Cc2ccc(C(F)(F)F)cc2)C(=O)N(C)CC(=O)N[C@@H](CCc2ccc(C3CC3)c(OC)c2)C(=O)N2C[C@H](OCC)C[C@H]2C(=O)NC2(CC(C)(C)C2)C(=O)N(C)[C@@H](C2CCCC2)C(=O)N(C)[C@H](C(=O)N(C)C)CC(=O)N1C [PP2853]	A (a compound having 10 or more and less than 20 is denoted as A)	A (a compound having 10 or more and less than 20 is denoted as A)	
CCC[C@H]1C(=O)N[C@@H]([C@@H](C)CC)C(=O)N(C2CC2)CC(=O)N(C)[C@H]2C/C=C\CCN(C2=O)[C@@H](Cc2ccc(C)cc2)C(=O)N(C)CC(=O)N[C@@H](CCc2ccc(C3CC3)c(Cl)c2)C(=O)N2C[C@H](OCC)C[C@H]2C(=O)NC2(CC(C)(C)C2)C(=O)N(C)[C@@H](C2CCCC2)C(=O)N(C)[C@H](C(=O)N(C)C)CC(=O)N1C [PP2885]	A (a compound having 10 or more and less than 20 is denoted as A)	A (a compound having 10 or more and less than 20 is denoted as A)	
CCO[C@@H]1C[C@H]2C(=O)NC3(CCC3)C(=O)N(C)[C@@H](C(CC)CC)C(=O)N(C)[C@H](C(=O)N(C)C)CC(=O)N(C)[C@H]3CCCC/C=C/c4ccc(cc4)C[C@@H](C(=O)N(C)CC(=O)N[C@@H](CCc4ccc(Cl)c(Cl)c4)C(=O)N2C1)N1CC/C=C\C[C@@H](C1=O)N(C)C(=O)CN(C1CC1)C(=O)[C@H]([C@@H](C)CC)NC3=O [PP2605]	AA (a compound having 20 or more is denoted as AA)	A (a compound having 10 or more and less than 20 is denoted as A)	
CCO[C@@H]1C[C@H]2C(=O)NC3(CC(C)(C)C3)C(=O)N(C)[C@@H](C(CC)CC)C(=O)N(C)[C@H](C(=O)N(C)C)CC(=O)N(C)[C@@H](CC)C(=O)N[C@@H]([C@@H](C)CC)C(=O)N(C)CC(=O)N(C)[C@H]3C/C=C\CCN(C3=O)[C@@H](Cc3ccc(C(F)(F)F)cc3)C(=O)N(C)CC(=O)N[C@@H](CCc3ccc(Cl)c(Cl)c3)C(=O)N2C1 [PP2179]			NRAS/KRAS (ratio of KD value for NRAS to KD value for KRAS) [1, 3]: AA (a compound having 20 or more is denoted as AA); HRAS/KRAS (ratio of KD value for HRAS to KD value for KRAS) [2, 4]: A (a compound having 10 or more and less than 20 is denoted as A)
CCCCO[C@H]1CCN2C(=O)[C@H](CCc3cc(F)c(C(F)(F)F)c(F)c3)NC(=O)CN(C)C(=O)[C@H](Cc3ccc(C(F)(F)F)cc3)N3CCCCC[C@@H](C3=O)N(C)C(=O)CN(C)C(=O)[C@H]([C@@H](C)CC)NC(=O)[C@H](CC(C)C)N(C)C(=O)C[C@@H](C(=O)N3CCOCC3)N(C)C(=O)[C@H](C3CCCC3)N(C)C(=O)C3(CCC3)NC(=O)[C@H]12 [PP1009]			NRAS/KRAS (ratio of KD value for NRAS to KD value for KRAS) [1, 3]: B (a compound having 3 or more and less than 10 is denoted as B); HRAS/KRAS (ratio of KD value for HRAS to KD value for KRAS) [2, 4]: B (a compound having 3 or more and less than 10 is denoted as B)
CCO[C@@H]1C[C@H]2C(=O)NC3(CC(C)(C)C3)C(=O)N(C)[C@@H](C3CCCC3)C(=O)N(C)[C@H](C(=O)N(C)C)CC(=O)N(C)[C@@H](CC(C)C)C(=O)N[C@@H]([C@@H](C)CC)C(=O)N(C)CC(=O)N(C)[C@H]3C/C=C\CCN(C3=O)[C@@H](Cc3ccc(C4CC4)cc3)C(=O)N(C)CC(=O)N[C@@H](CCc3ccc(C(F)(F)F)c(OC)c3)C(=O)N2C1 [PP2691, (2S,8S,12R,14S,20S,23S,27S,30S,36S,38Z)-20-cyclopentyl-2-[(4-cyclopropylphenyl)methyl]-12-ethoxy-27-isobutyl-8-[2-[3-methoxy-4-(trifluoromethyl)phenyl]ethyl]-N,N,3′,3′,4,19,22,26,32,35-decamethyl-30-[(1S)-1-methylpropyl]-3,6,9,15,18,21,25,28,31,34,42-undecaoxo-spiro[1,4,7,10,16,19,22,26,29,32,35-undecazatricyclo[34.5.1.0^10,14]dotetracont-38-ene-17,1′-cyclobutane]-23-carboxamide]	AA (a compound having 20 or more is denoted as AA)	A (a compound having 10 or more and less than 20 is denoted as A)	
CCC[C@H]1C(=O)N[C@@H]([C@@H](C)CC)C(=O)N(C)CC(=O)N(C)[C@H]2C/C=C\CCN(C2=O)[C@@H](Cc2ccc(C(F)(F)F)cc2)C(=O)N(C)CC(=O)N[C@@H](CCc2ccc(C(F)(F)F)c(CC)c2)C(=O)N2C[C@H](OCC)C[C@H]2C(=O)NC2(CC(C)(C)C2)C(=O)N(C)[C@@H](C2CCCC2)C(=O)N(C)[C@H](C(=O)N(C)C)CC(=O)N1C [PP2861]	A (a compound having 10 or more and less than 20 is denoted as A)	B (a compound having 3 or more and less than 10 is denoted as B)	
CCCC[C@H]1C(=O)N[C@@H]([C@@H](C)CC)C(=O)N(C)CC(=O)N(C)[C@H]2C/C=C\CCN(C2=O)[C@@H](Cc2ccc(C(F)(F)F)cc2)C(=O)N(C)CC(=O)N[C@@H](CCc2ccc(C(F)(F)F)c(Cl)c2)C(=O)N2C[C@H](OCC)C[C@H]2C(=O)NC2(CCC2)C(=O)N(C)[C@@H](C2CCCC2)C(=O)N(C)[C@H](C(=O)N(C)CC)CC(=O)N1C [PP2841]	A (a compound having 10 or more and less than 20 is denoted as A)	A (a compound having 10 or more and less than 20 is denoted as A)	
CCC[C@H]1C(=O)N[C@@H]([C@@H](C)CC)C(=O)N(C)CC(=O)N(C)[C@H]2C/C=C\CCN(C2=O)[C@@H](Cc2ccc(C(F)(F)F)cc2)C(=O)N(C)CC(=O)N[C@@H](CCc2cc(F)c(Cl)c(OC)c2)C(=O)N2C[C@H](OCC)C[C@H]2C(=O)NC2(CC(C)(C)C2)C(=O)N(C)[C@@H](C2CCCC2)C(=O)N(C)[C@H](C(=O)N(C)C)CC(=O)N1C [PP2864]	A (a compound having 10 or more and less than 20 is denoted as A)	A (a compound having 10 or more and less than 20 is denoted as A)	
CCO[C@@H]1C[C@H]2C(=O)NC3(CCC3)C(=O)N(C)[C@@H](C3CCCC3)C(=O)N(C)[C@H](C(=O)N(C)C)CC(=O)N(C)[C@@H](CC3CCCC3)C(=O)N[C@@H]([C@@H](C)CC)C(=O)N(C)CC(=O)N(C)[C@H]3CCCCN(C3=O)[C@@H](Cc3ccc(C(F)(F)F)cc3)C(=O)N(C)CC(=O)N[C@@H](CCc3cc(F)c(C(F)(F)F)c(F)c3)C(=O)N2C1 [PP0700]			NRAS/KRAS (ratio of KD value with respect to NRAS to KD value with respect to KRAS) [1, 3]: C (A compound having a KD ratio of 0.1 or more and less than 3 is denoted as C); HRAS/KRAS (ratio of KD value with respect to HRAS to KD value with respect to KRAS) [2, 4]: B (a compound having 3 or more and less than 10 is denoted as B)
CCOC[C@H]1C(=O)N[C@@H]([C@@H](C)CC)C(=O)N(C)CC(=O)N(C)[C@H]2C/C=C\CCN(C2=O)[C@@H](Cc2ccc(C3CC3)cc2)C(=O)N(C)CC(=O)N[C@@H](CCc2ccc(C(F)(F)F)c(OC)c2)C(=O)N2C[C@@H](C)C[C@H]2C(=O)NC2(CC(C)(C)C2)C(=O)N(C)[C@@H](C2CCCC2)C(=O)N(C)[C@H](C(=O)N(C)CC)CC(=O)N1C [PP2700]	A (a compound having 10 or more and less than 20 is denoted as A)	B (a compound having 3 or more and less than 10 is denoted as B)	
CCC[C@H]1C(=O)N[C@@H]([C@@H](C)CC)C(=O)N(C)CC(=O)N(C)[C@H]2C/C=C\CCN(C2=O)[C@@H](Cc2ccc(C(F)(F)F)cc2)C(=O)N(C)CC(=O)N[C@@H](CCc2cc(F)c(C(F)F)c(OC)c2)C(=O)N2C[C@H](OCC)C[C@H]2C(=O)NC2(CC(C)(C)C2)C(=O)N(C)[C@@H](C2CCCC2)C(=O)N(C)[C@H](C(=O)N(C)C)CC(=O)N1C [PP2867]	A (a compound having 10 or more and less than 20 is denoted as A)	A (a compound having 10 or more and less than 20 is denoted as A)	
CCCO[C@@H]1C[C@H]2C(=O)N(C)C3(CC(C)(C)C3)C(=O)N(C)[C@@H](C(CC)CC)C(=O)N(C)[C@H](C(=O)N(C)C)CC(=O)N(C)[C@@H](COC)C(=O)N[C@@H]([C@@H](C)CC)C(=O)N(C)CC(=O)N(C)[C@H]3C/C=C\CCN(C3=O)[C@@H](Cc3ccc(C)cc3)C(=O)N(C)CC(=O)N[C@@H](CCc3ccc(Cl)c(Cl)c3)C(=O)N2C1 [PP2812]	AA (a compound having 20 or more is denoted as AA)	A (a compound having 10 or more and less than 20 is denoted as A)	
